How the values were obtained:
Type in all cases: cell-based, mouse
[1] = test system: NOS2 mRNA expression in RAW 264.7 cells; test: qRT-PCR of NOS2 mRNA in IL-4/IL-13-stimulated RAW 264.7 cells; conditions: Mus musculus, RAW264.7, IL-4/IL-13 (20 ng/mL) plus compound 10 μM, 12 h, stimulated control = 100%, mean ± SD, read-out: NOS2 mRNA Relative Expression (%)
Description: (§1) We first investigated the impacts of a series of commercially available natural pseudolaric acids or their O-pyranosides (Figure 1) on the pro-tumoral phenotype of TAMs, which play a critical role in anti-tumor immune response modulation. […] In contrast, M1-biased macrophages combat tumor growth and bacterial infections by expressing inducible nitric oxide synthase 2 (NOS2), which catalyzes the production of nitric oxide (NO). Recognizing the pivotal roles of ARG1 and NOS2, we utilized these molecules as key biomarkers and effectors for assessing macrophage immune function. In our experiments, the mouse monocyte–macrophage leukemia cell line RAW 264.7 was induced with IL-4/IL-13 to acquire an M2-like pro-tumoral phenotype. Concurrently, the cells were treated with the pseudolaric acid-related natural products 1–7 at a concentration of 10 μM for 12 h. Additionally, PLX3397 was used as a positive control at a concentration of 0.5 μM. […] As shown in Table 1 and Figure S1A, pseudolaric acid B (1), its deacetoxyl analogue 2 (pseudolaric acid C), and β-D-glucoside 7 substantially attenuated the upregulation of ARG1 mRNA expression induced by IL-4/IL-13, with statistically significant effects. In contrast, bis-carboxylic acids analogs 4 (pseudolaric acid C2) and 6 (demethoxydeacetoxypseudolaric acid B) have no significant impact on ARG1 mRNA expression.
(§2) With these carboxylic acid-modified derivatives in hand, we investigated their impact at 10 μM on ARG1 and NOS2 mRNA expression in RAW 264.7 cells pre-stimulated with IL-4/IL-13 to evaluate the effects on the pro-tumor phenotype of macrophages. […] Further removal of one hydroxyl from the glycerol moiety 15 further enhanced the inhibitory effect on ARG1 expression but had no significant impact on NOS2 expression.
(§3) Total RNA was isolated from cells using the EZ-press RNA Purification Kit (EZBioscience, Suzhou, China) and subjected to reverse transcription with the 5×HiScript II qRT SuperMix II (Vazyme, Nanjing, China). PCR was performed with the 2×ChamQ Universal SYBR qPCR Master Mix (Vazyme, Nanjing, China). All primers for qRT-PCR are described in Table S1. The 2^−∆∆Ct method was utilized to calculate the fold change in gene expression, with the expression levels in the stimulated group set as the baseline for normalization.

Raw264.7 cells = test: Cell viability (CCK-8) of RAW264.7 cells; conditions: IL-4/IL-13 plus compound 10 μM, 12 h
Description: Cells were seeded in 96-well tissue culture plates. On the next day, cells were exposed to various concentrations of compounds and further cultured for the indicated period. Finally, cell proliferation was determined by using the Cell Counting Kit (CCK-8) (Dojindo, Kumamoto, Japan) assay.
Figure S2. Effects of natural pseudolaric acids 1-4, 6 and their O-pyranosides 5, 7 as well as the derivatives 8-18 o f 1 on Raw264.7 cell viability. Raw264.7 cells were treated with IL-4/IL-13 alone or combined with indicated compounds (10 μM) for 12 h. After incubation, the cell viability was determined using a cell counting kit (CCK-8, Dojindo, Japan) assay.
(1 picture or pasted object on this page, not shown here)

[2] = test system: ARG1, NOS2, CD206 and MHC II mRNA expression in RAW 264.7 cells; test: qRT-PCR of ARG1, NOS2, CD206, MHC II in RAW264.7 cells at multiple concentrations; conditions: RAW 264.7 cells stimulated with IL-4/IL-13, multiple concentrations, 12 h
Description: We also extended the test to primary murine macrophages derived from bone marrow (BMDMs), which were cultured in vitro with recombinant mouse M-CSF for 6 days. The BMDMs were then stimulated with IL-4/IL-13, leading to their transformation into M2-like pro-tumoral macrophages. This transformation was characterized by an increase in both ARG1 and CD206 expression and a decrease in both NOS2 and MHC II expression. […] Subsequently, we assessed the capacity of compound 12 to inhibit the M2-like polarization of macrophages using CSF-1-differentiated mouse BMDMs. These cells were treated with IL-4 and IL-13 for 48 h, and the expression levels of CD206, an M2-type marker, and CD86, an M1-type marker, were analyzed via flow cytometry. […]
Figure 2 Compound 12 inhibits the M2-like polarized phenotype of macrophages. […] The expression levels of the markers CD206 and CD86 on induced macrophages were determined by flow cytometry, and the mean fluorescence intensity (MFI) was analyzed with FlowJo (C), or the cells were lysed and immunoblotted to detect the indicated proteins (D). […] Data are represented as means ± SD. ^### p < 0.001 vs. non-stimulated control group, * p < 0.05, ** p < 0.01, *** p < 0.001 vs. stimulated control group. p-values were determined using one-way ANOVA.

[3] = test system: ARG1 mRNA expression in RAW 264.7 cells; test: qRT-PCR of ARG1 mRNA in IL-4/IL-13-stimulated RAW 264.7 cells; conditions: Mus musculus, RAW264.7, IL-4/IL-13 (20 ng/mL) plus compound 10 μM, 12 h, stimulated control = 100%, mean ± SD, read-out: ARG1 mRNA Relative Expression (%)
Description: as §1, §2, §3

With `COC(=O)C1=CC[C@@]23CC[C@@H]([C@@](C)(/C=C/C=C(\C)C(=O)O)OC2=O)[C@@]3(OC(C)=O)CC1` [compound 1, pseudolaric acid B] the activity at 10 µM [1] was 135 ± 19.5%, the cell viability (Raw264.7 cells) was “only a minimal reduction in cell viability” and the “mRNA expression levels of ARG1 and CD206” value [2] was “significantly reduced”. The “mRNA expression levels of NOS2 and MHC II” value [2] was “upregulated the mRNA expression levels of NOS2 and MHC II in a dose-dependent manner” and the mrna remaining at 10 µM [3] was 9.9 ± 0.8%.

Reference: article PMC12114375, “Discovery of Hydrazineyl Amide Derivative of Pseudolaric Acid B for Reprogramming Tumor-Associated Macrophages Against Tumor Growth” (Molecules, 2025)
